Calls of active or inactive are those of the source.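 Rule for the calls: active = IC50 at or below 20 µM; inactive = the rest.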
test system: 697 B-cell NF-kB luciferase reporter, PMA/ionomycin, 16 h; test: NF-kB reporter suppression in 697 B cells – T-cell screen hits, luminescence, SAR follow-up (AID 504487)

SMILES	IC50
CCCC(=O)NC(c1ccccc1OC)c1ccc2cccnc2c1O (stereo not drawn)	> 79 µM (inactive)
CCCC(=O)NC(c1ccccc1)c1ccc2cccnc2c1O (stereo not drawn)	> 79 µM (inactive)
CCCC(=O)NC(c1ccc(OC)cc1)c1ccc2cccnc2c1O (stereo not drawn)	> 79 µM (inactive)
COc1ccc(C(NC(C)=O)c2ccc3cccnc3c2O)cc1 (stereo not drawn)	> 79 µM (inactive)
CCCC(=O)NC(c1ccc(C)cc1)c1ccc2cccnc2c1O (stereo not drawn)	> 79 µM (inactive)
CCCC(=O)NC(c1ccc(Cl)cc1)c1ccc2cccnc2c1O (stereo not drawn)	> 79 µM (inactive)
COc1ccc(C(NC(=O)c2ccccc2)c2ccc3cccnc3c2O)cc1 (stereo not drawn)	> 79 µM (inactive)
COc1cccc(C(=O)Nc2ccc3[nH]c(-c4cccc(OC)c4)cc(=O)c3c2)c1	> 79 µM (inactive)
